In patent publication US20150005381A1, “METHOD FOR MODULATING STEM CELL GROWTH” (SUCAMPO AG, priority 2008, published 2015):

Legend:
[1] = system: nigro-striatal dopaminergic neurons of MPTP-treated mice; experiment: Effect on impaired dopaminergic neurons in MPTP-treated mice (TH immunostaining); format: in vivo, male C57BL/6 mice; settings: Day 8; for Area of TH-positive immunostained fibers in striatum, mean ± S.E. / TH-positive immunostained cells in substantia nigra, mean ± S.E.: MPTP-treated mice
Experimental: The effect of Compound A (11-deoxy-13,14-dihydro-15-keto-16,16-difluoro-PGE1) on impaired neuron was tested. 1-methyl-4-phenyl-1,2,3,6-tetrahydropyridine hydrochloride (MPTP) was intraperitoneally administered to male C57BL/6 mice aged 10 weeks at 15 mg/kg/dose 4 times a day with an approximately 3-hour interval between doses for 2 days (experimental Day 1 and Day 2) to destroy the dopaminergic neuron in the brain. On the day following the final MPTP administration (on Day 3), some MPTP-treated mice were sacrificed to estimate the severity of degeneration and loss of nigro-striatal dopamine neurons by measuring the area of tyrosine hydroxylase (TH)-positive immunostained fibers in striatum. Other MPTP-treated mice were orally administered Compound A (11-deoxy-13,14-dihydro-15-keto-16,16-difluoro-PGE1) or the vehicle twice a day for 5 days (from Day 3 to Day 7) starting from the day following the final MPTP administration. The mice were decapitated on the day following the final administration of Compound A or the vehicle (on Day 8), and the whole brain was removed by incision of the skull, and placed into Bouin's fluid (pH 3.5-4.0). The brain section at the level of striatum (0.74 mm anterior to bregma) and substantia nigra (3.08 mm posterior to bregma) was cut out. After dehydration, the paraffin embedding of the slices was employed. Sections (about 6 μm thick) were prepared out of each of the slices at Bregma 0.74 mm and Bregma −3.08 mm, and the sections were used for TH immunostaining. The number of TH-positive immunostained cells in the right substantia nigra compacta (SNC) at Bregma −3.08 mm was counted by visual observation using an optical microscope OLYMPUS BH-2 (Olympus Corp.) with a ×20 microscope objective. For measuring the area of TH-positive immunostained fibers in striatum, an image obtained with an optical microscope OLYMPUS BH-2 (Olympus Corp.) with a ×40 microscope objective of TH-positive immunostained fibers in the right caudate putamen (CPu) at Bregma 0.74 mm was incorporated into a computer through OLYMPUS MCD-350, and the area of TH-positive fibers larger than 5 μm^2 was measured using an image analyzer Win ROOF (V5.6, Mitani Corp.), and expressed in term of an area of 1 mm^2.

[2] = system: full-thickness excisional wound in diabetic mice; experiment: Excisional wound healing in diabetic mice; format: in vivo, female diabetic (BKS.Cg-+Lepr^db/+Lepr^db/Jcl) mice; settings: ointment, Table 3
Experimental: The effect of Compound A (11-deoxy-13,14-dihydro-15-keto-16,16-difluoro-PGE1) on excisional wound healing was tested. A full-thickness excisional wound (1.5×1.5 cm) was made on the back of female diabetic (BKS.Cg-+Lepr^db/+Lepr^db/Jcl) mice at the age of 12 weeks. The excisional wound was covered with the perforated film dressing. Each test ointment was put into a 1-mL disposable polypropylene syringe to which a 21G hypodermic needle is attached, and 0.1 mL of the test ointment was applied to the wound by sticking the hypodermic needle into the film dressing, which covers the excisional wound. The application was performed once a day for 21 days starting from the day when the excisional wound was made; the day when the excisional wound was made was defined as Day 1. For histological examination, the skin including the excisional wound was obtained from animals treated with each test ointment for 6 days, and was served for immunostaining with antibody against Ki67, a marker protein of proliferating cells. The outline of each excisional wound was traced before application (Day 1) and Days 6, 8, 11, 13, 15, 18, 20, and 22 of administration. The traced excisional wound area was measured with an area-line meter. […]

[3] = Compound A 0.1 mg/kg orally twice a day for 5 days
[4] = Compound A 1 mg/kg orally twice a day for 5 days

SMILES: CCCCC(F)(F)C(=O)CCC1CCC(=O)C1CCCCCCC(=O)O (stereo not shown) [Compound A, 11-deoxy-13,14-dihydro-15-keto-16,16-difluoro-PGE1]
- Mean area of TH-positive fibers in the striatum compared to MPTP+Vehicle (control) group ([1]; 0.1 mg/kg and 1 mg/kg groups): significantly greater mean area of TH-positive fibers in the striatum
- Number of TH-positive immunostained cells in the substantia nigra, trend in words ([1]; 0.1 and 1 mg/kg orally): increased the number of TH-positive immunostained cells in the substantia nigra in a dose-dependent manner
- Area of TH-positive immunostained fibers in striatum, mean ± S.E. [1, 3]: 0.0465 ± 0.0102 mm2
- TH-positive immunostained cells in substantia nigra, mean ± S.E. [1, 3]: 35.2 ± 5.0 Number of cells
- Area of TH-positive immunostained fibers in striatum, mean ± S.E. [1, 4]: 0.0444 ± 0.0092 mm2
- TH-positive immunostained cells in substantia nigra, mean ± S.E. [1, 4]: 44.4 ± 5.0 Number of cells
- Skin wound healing, in words [2]: accelerated skin wound healing
